Experimental findings from article PMC6996867 (Journal of Medicinal Chemistry, 2010) are described below.

One series is described as follows: pKa. It counts as physicochemical.
Series [1] can be described thus: In vivo pharmacokinetic studies in mice.
The subject of series [2] is P. berghei strain GFP ANKA. As to the kind of experiment: In vivo antimalarial activity, P. berghei infected malaria mouse model. More on the design: species or system Plasmodium berghei (female NMRI mice).

Turning to `C[C@H]1Cc2c([nH]c3cc(Cl)ccc23)[C@@]2(N1)C(=O)Nc1ccc(Cl)cc12` [Compound 18a, (1R,3S)-5′,7-Dichloro-3-methyl-2,3,4,9-tetrahydrospiro[β-carboline-1,3′-indol]-2′(1′H)-one], the pKa (in general, the pH at which an ionisable group is half protonated) in “pKa” (pKa1, first pKa) stood at 5.2; in the series “pKa” (pKa2, second pKa), 10.6.

In “pKa” (pKa1, first pKa), `C[C@H]1CCc2c([nH]c3ccccc23)[C@@]2(N1)C(=O)Nc1ccc(Br)cc12` [Compound 1a, (1R,3S)-5′-Bromo-3-methyl-3,4,5,10-tetrahydro-2H-spiro[azepino[3,4-b]indole-1,3′-indol]-2′(1′H)-one] had a pKa of 5.2.

In turn, `C[C@H]1Cc2c([nH]c3ccc(F)cc23)[C@@]2(N1)C(=O)Nc1ccc(Cl)cc12` [Compound 17a, (1R,3S)-5′-Chloro-6-fluoro-3-methyl-2,3,4,9-tetrahydrospiro[β-carboline-1,3′-indol]-2′(1′H)-one] showed a pKa in “pKa” (pKa1, first pKa) of 4.8.

As to `C[C@H]1Cc2c([nH]c3cc(F)c(F)cc23)[C@@]2(N1)C(=O)Nc1ccc(Cl)cc12` [Compound 20a, (1R,3S)-5′-Chloro-6,7-difluoro-3-methyl-2,3,4,9-tetrahydrospiro[β-carboline-1,3′-indol]-2′(1′H)-one], the pKa in the series “pKa” (pKa1, first pKa) was 4.9. Moreover, the “total systemic clearance relative to hepatic blood flow” value in series [1] (mice, intravenous administration) was about 10 % hepatic blood flow. Further, in series [1] (mice, oral, 20a vs 9a), the “exposure (AUC∞) greater than 9a” value was 18 fold. For the same compound, the half-life – broadly, the time in which the quantity being followed falls by half – in series [1] (mouse, plasma) was 3 h. The “full cure (no parasites at day 30)” value in series [2] (3 × 30 mg/kg oral doses) is reported as “four out of five mice”. Moreover, the “toxicity or behavioral changes after drug administration” value in series [2] (treated mice, any dosing regimen) is “neither toxicity nor behavioral changes”.
